Like-named read-outs stand apart in the source and are kept apart here.
Assays:
[1] = molecular target: T1, dopamine D2s receptor (Homo sapiens, UniProt P14416); experiment: D2 receptor binding assay (3H-raclopride displacement, membranes from D2s-transfected CHO cells)
T1 construct: expressed in transfected cells; membranes used
Procedure: (§1) In vitro experimental assays can generally be carried out as described herein. Briefly, CHO-K1 cells stably transfected with the dopamine D2s receptor can be used in the experiments and maintained in Ham's F12 culture medium supplemented with 2 mM L-glutamine, 10% FBS, and 500 μg/ml Hygromycin.
The ability of test compounds to displace ^3H-raclopride at the D2s receptor can be determined on membranes from D2s-transfected CHO cells (Bmax 13 pmol/mg protein). An assay can use a standard 96-well glass-fiber filter plate to retain radioligand bound by the receptor. Retained ^3H can be determined in a TopCount scintillation plate counter following the addition of a liquid scintillant to each well. Compounds can be evaluated for their potency using competition curve analysis, resulting in calculated Ki values.

[2] = molecular target: T1, dopamine D2s receptor; experiment: D2 receptor in vitro functional GTPγS assay (block of dopamine-stimulated [35S]-GTPγS binding); type: biochemical
Procedure: as §1
GTPgS assay can be performed substantially as described by Lazareno, Methods in Molecular Biology, 1999, 106, 231-245. Antagonist activity of compounds can be determined by the ability of test compounds to block dopamine-stimulated [^35S]-GTPγS binding to cell membranes from D2s stably-transfected CHO cells.

[3] = molecular target: T2, human norepinephrine transporter (Homo sapiens, UniProt P23975); experiment: Norepinephrine uptake (fluorescent substrate, HEK293F cells); type: cell-based
T2 construct: expressed in transfected cells
Procedure: An assay for measuring norepinephrine uptake can be carried out as described below. Briefly, test compounds can be evaluated in an 11-point IC50 curve for their ability to inhibit uptake of a proprietary fluorescent substrate (dye) from Molecular Devices that mimics biogenic amine neurotransmitters. A stable population of HEK293F cells transfected with the human norepinephrine transporter (cultured in Freestyle 293 expression medium with […] hygromycin B) can be cryopreserved, then plated and used on the day of the assay. Cells can be at 60 K/well; dye can be 7% (final) of the vendor-recommended reconstitution volume (100%). Compounds can be diluted 1:20 in buffer and incubated with the cells for 30 minutes prior to addition of the dye. In this fluorescence intensity assay, plates can be read after a 20 minute dye incubation to determine percent effect with respect to total signal (0.5% DMSO, final) and background signal (10 μM desipramine, final). The IC50, half of the control response, can be converted to Ki using the using the standard Cheng-Prusoff equation.

[4] = molecular target: H1 receptor (Homo sapiens, UniProt P35367); experiment: H1 receptor binding; details: read-out: H1 Hu Bind Mean Ki
Source text: H1 Receptor Binding The H1 receptor binding method can be carried out in accordance with De Backer et al., Biochem. Biophys. Res. Commun, 1993, 197(3), 1601.

[5] = test system: D-Amphetamine-induced Hyperlocomotor Activity; experiment: D-Amphetamine-induced hyperlocomotor activity (LMA) in habituated rat model; type: in vivo, male Long Evans rats; details: D-amphetamine 1 mg/kg s.c.
Procedure: Studies in vivo can be used to determine the antipsychotic effect and are generally carried out as follows. Briefly, D-Amphetamine-induced Hyperlocomotor Activity (LMA) in a Habituated Rat Model can be assessed in male Long Evans rats using a paradigm that includes a habituation phase followed by administration of 1 mg/kg D-amphetamine. Animals can be allowed to acclimatize to the testing room for 1 hour before being weighed and placed into activity chambers. Thirty minutes after LMA measurement is begun, animals can be briefly removed, dosed via the sub-cutaneous route (s.c.) with vehicle or test drug at different doses and returned to the chambers. After a further 30 minutes, animals can again be removed and dosed with vehicle or D-amphetamine at 1 mg/kg (s.c.). After returning the animals to the activity chambers, LMA can be assessed for a further 60 minutes. Haloperidol (0.1 mg/kg dissolved in H2O) can be administered 15 minutes prior to D-amphetamine via the s.c. route. Statistical analysis can be made of total distance traveled after D-amphetamine administration using ANOVA and Tukey's post hoc analysis where appropriate. All values can be expressed as Mean and SD.

[6] = test system: Conditioned Avoidance Responding; experiment: Conditioned avoidance responding (CAR) assay; type: in vivo, Male Long-Evans rats; details: rat
Procedure: Male Long-Evans rats can be trained to traverse to the opposite side of a standard shuttle cage following presentation of an auditory and visual stimulus to avoid delivery of electric shock to the floor of the cage. Daily sessions can consist of up to 80 trials. If a shock is delivered, animals have the opportunity to escape the shock by traversing to the opposite side of the cage. Drug can be administered (via s.c. or p.o. route) 60 minutes prior to testing and the percentage of trials in which shock is avoided and escaped can be recorded.

[7] = w/NaCl, read-out: D2 binding w/NaCl Ki
[8] = antagonist mode, read-out: D2 Ant GTPγS IC50
[9] = HEK cells, fluorescence intensity, read-out: hNET uptake HEK FLInt CR Mean Ki

T1 sequence (P14416 1-414 isoform P14416-2): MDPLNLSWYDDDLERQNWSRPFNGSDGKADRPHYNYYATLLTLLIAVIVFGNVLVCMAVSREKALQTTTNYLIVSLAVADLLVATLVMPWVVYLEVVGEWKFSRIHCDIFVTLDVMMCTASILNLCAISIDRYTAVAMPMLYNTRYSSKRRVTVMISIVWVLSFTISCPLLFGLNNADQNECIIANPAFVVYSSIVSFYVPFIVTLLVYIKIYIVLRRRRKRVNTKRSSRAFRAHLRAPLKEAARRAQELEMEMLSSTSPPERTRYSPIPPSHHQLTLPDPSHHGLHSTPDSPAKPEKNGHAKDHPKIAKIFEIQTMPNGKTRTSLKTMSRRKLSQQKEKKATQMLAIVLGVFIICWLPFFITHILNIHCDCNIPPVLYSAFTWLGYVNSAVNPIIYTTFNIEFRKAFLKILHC
H1 receptor, sequence (P35367 whole entry): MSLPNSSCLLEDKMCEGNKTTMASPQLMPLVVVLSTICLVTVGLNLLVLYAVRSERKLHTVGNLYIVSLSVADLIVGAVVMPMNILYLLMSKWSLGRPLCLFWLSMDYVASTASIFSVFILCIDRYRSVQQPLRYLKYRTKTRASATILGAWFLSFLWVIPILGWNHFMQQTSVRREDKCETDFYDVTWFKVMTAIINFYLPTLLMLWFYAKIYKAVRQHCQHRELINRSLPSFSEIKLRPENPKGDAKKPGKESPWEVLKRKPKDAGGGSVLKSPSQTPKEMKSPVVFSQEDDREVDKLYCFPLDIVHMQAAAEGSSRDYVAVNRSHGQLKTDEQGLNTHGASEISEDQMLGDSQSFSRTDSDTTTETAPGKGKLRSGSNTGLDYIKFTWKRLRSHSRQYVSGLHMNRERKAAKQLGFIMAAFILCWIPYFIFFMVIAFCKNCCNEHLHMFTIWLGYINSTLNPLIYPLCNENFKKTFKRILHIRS
T2 sequence (P23975 whole entry): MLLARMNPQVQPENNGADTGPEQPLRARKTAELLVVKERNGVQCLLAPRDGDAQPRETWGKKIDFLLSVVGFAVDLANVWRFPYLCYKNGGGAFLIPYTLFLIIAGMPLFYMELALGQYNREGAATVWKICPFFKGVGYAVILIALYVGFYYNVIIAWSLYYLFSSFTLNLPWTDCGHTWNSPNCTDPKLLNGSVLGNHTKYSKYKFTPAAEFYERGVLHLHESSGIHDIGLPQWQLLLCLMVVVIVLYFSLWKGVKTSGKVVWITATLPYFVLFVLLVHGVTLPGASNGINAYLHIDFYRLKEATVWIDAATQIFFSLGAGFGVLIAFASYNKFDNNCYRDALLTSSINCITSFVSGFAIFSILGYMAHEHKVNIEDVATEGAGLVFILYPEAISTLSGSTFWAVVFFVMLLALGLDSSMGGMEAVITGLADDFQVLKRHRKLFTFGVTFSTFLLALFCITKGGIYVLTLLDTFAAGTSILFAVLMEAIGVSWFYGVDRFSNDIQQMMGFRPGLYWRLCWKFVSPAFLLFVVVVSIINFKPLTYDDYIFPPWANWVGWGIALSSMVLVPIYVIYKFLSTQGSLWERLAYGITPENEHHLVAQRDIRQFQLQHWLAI

Ki [1, 7]	IC50 [2, 8]	Ki [3, 9]	Ki [4]	Ki ([1]; 3H-raclopride, D2s-transfected CHO cell membranes, one average result, read-out: D2 binding Ki)	IC50 ([2]; antagonist, dopamine-stimulated [35S]-GTPγS binding, D2s CHO membranes, one average result, read-out: GTPγS IC50)	Ki ([3]; HEK293F cells with human NET, Cheng-Prusoff from IC50, one average result, read-out: NET inhibition Ki)	SMILES	activity in D-amphetamine-induced LMA ([5]; 30 mg/kg (sc))	activity in D-amphetamine-induced LMA ([5]; 60 mg/kg (sc))	activity in conditioned avoidance responding ([6]; 30 mg/kg (sc))	activity in conditioned avoidance responding ([6]; 60 mg/kg (sc))
0.49 nM	8.4 nM	–	–	–	–	–	CN1CCN(C2=Nc3ccccc3Sc3ccc(Cl)cc32)CC1 [2-Chloro-11-(4-methyl-piperazin-1-yl)-dibenzo[b,f][1,4]thiazepine]	–	–	–	–
0.7 nM	35 nM	41 nM	3.87 nM	–	–	–	Clc1ccc2c(c1)C(N1CCNCC1)=Nc1ccccc1S2 [2-Chloro-11-piperazin-1-yl-dibenzo[b,f][1,4]thiazepine]	–	–	–	–
1.1 nM	170 nM	59 nM	1.82 nM	–	–	–	CN1CCN(C2=Nc3ccccc3Sc3ccc(F)cc32)CC1 [2-Fluoro-11-(4-methyl-piperazin-1-yl)-dibenzo[b,f][1,4]thiazepine]	–	–	–	–
11 nM	400 nM	9.6 nM	–	~11 nM	~404 nM	~10 nM	Fc1ccc2c(c1)C(N1CCNCC1)=Nc1ccccc1S2 [Example 1, 2-fluoro-11-(piperazin-1-yl)dibenzo[b,f][1,4]thiazepine]	showed activity	showed activity	showed activity	showed activity

SMILES	Ki [1, 7]	IC50 [2, 8]	Ki [3, 9]	Ki [4]	Ki ([1]; 3H-raclopride, D2s-transfected CHO cell membranes, one average result, read-out: D2 binding Ki)	IC50 ([2]; antagonist, dopamine-stimulated [35S]-GTPγS binding, D2s CHO membranes, one average result, read-out: GTPγS IC50)	Ki ([3]; HEK293F cells with human NET, Cheng-Prusoff from IC50, one average result, read-out: NET inhibition Ki)	activity in D-amphetamine-induced LMA ([5]; 30 mg/kg (sc))	activity in D-amphetamine-induced LMA ([5]; 60 mg/kg (sc))	activity in conditioned avoidance responding ([6]; 30 mg/kg (sc))	activity in conditioned avoidance responding ([6]; 60 mg/kg (sc))
c1ccc2c(c1)N=C(N1CCNCC1)c1ccccc1S2 [11-Piperazin-1-yl-dibenzo[b,f][1,4]thiazepine]	37 nM	800 nM	24 nM	3.33 nM	–	–	–	–	–	–	–

— patent US20110160184A1, “Dibenzothiazepine Derivatives and Use Thereof” (ASTRAZENECA AB, priority 2008, published 2011)
